The nature of assay [1]: Ice recrystallization inhibition (IRI) activity, splat-freezing method. It is filed as physicochemical. Conditions: for MLGS (%) relative to that of DPBS, compared with the unbound components: 20 μL DPBS solution, same concentration.
Procedure: The IRI activity was assessed using “splat-freezing method”, wherein a sample was dissolved and dispersed into a DPBS solution, and 10-30 μL of the resulting solution was added dropwise onto the surface of a clean silicon disk pre-cooled at -60° C. at a height of no less than 1.0 m; the solution was slowly heated to -6° C. at a speed of 10° C. ·min^−1 by using a hot-cold stage, and was annealed for 30 min at this temperature; the sizes of ice crystals were observed and recorded by using a polarizing microscope and a high-speed camera. The hot-cold stage was sealed to ensure that the internal humidity was about 50%.
The IRI activity was assessed using “splat-freezing method”, wherein a sample was dissolved and dispersed into a DPBS solution, and 10-30 μL of the resultant solution was added dropwise onto the surface of a clean silicon disk precooled at −60° C. at a height of no less than 1.0 m; the solution was slowly heated to −6° C. at a speed of 10° C./min by using a hot-cold stage, and was annealed for 30 min at this temperature; the sizes of ice crystals were observed and recorded by using a polarizing microscope and a high-speed camera. The hot-cold stage was sealed to ensure that the internal humidity was about 50%.
The ice recrystallization inhibition (IRI) activity was assessed using “splat-freezing method”, wherein the two PVAs were separately dissolved and dispersed into DPBS solutions, and 10-30 μL of the resulting solution was added dropwise onto the surface of a clean silicon disk pre-cooled at −60° C. at a height of no less than 1.0 m; the solution was slowly heated to −6° C. at a speed of 10° C.·min^−1 by using a hot-cold stage, and was annealed for 30 min at this temperature; the sizes of ice crystals were observed and recorded by using a polarizing microscope and a high-speed camera. The hot-cold stage was sealed to ensure that the internal humidity was about 50%.
Assay [2] in a line: Ice topography (DIS) observation and thermal hysteresis (TH) measurement, nanoliter osmometer. It is filed as physicochemical. The settings on record: deionized aqueous solution; for thermal hysteresis (TH): nanoliter osmometer; for modification effect on the topography of ice crystals (DIS observation): supercooling degree of −0.1 °C. How it is done: DIS observation and TH measurement were performed by using a nanoliter osmometer. A capillary was first melt with the outer flame of a alcohol burner, and simultaneously stretched to produce a capillary with a very fine pore size, and the capillary was then linked to a microsyringe; an immersion oil with higher viscosity was injected into a disk with micron-sized holes, and an aqueous solution in which the material was dissolved was injected into the microholes by using a microsyringe; the droplet was quickly frozen by regulating the temperature, and then slowly heated to give a single crystal ice, the single crystal ice was slowly cooled at the precision of 0.01° C., and the DIS observation and TH test were performed by using a microscope provided with a high-speed camera.

Peptide text beside a SMILES is read from it.

On to `CC(O)C(NC(=O)[C@@H](O)[C@H](O)[C@@H](O)[C@@H](O)CO)C(=O)O` (stereo partly drawn) [GDL-L-Thr], for which the “MLGS (%) relative to that of DPBS, compared with the unbound components” value in assay [1] is “obviously smaller than those of the DPBS solutions of GDL and amino acids at the same concentration”. The “ability to inhibit the growth of ice crystals” value in assay [1] (result in words) is given as “good capability of inhibiting the growth of ice crystals”. In assay [2], the “thermal hysteresis (TH)” value is recorded as “No TH was determined” and the “modification effect on the topography of ice crystals (DIS observation)” value (shortened to “modification effect on the topography”) was “weak modification effect on the topography of ice crystals”.

For `NC(=O)CN(CCC(=O)O)C(=O)CN(CCC(=O)O)C(=O)CN(CCC(=O)O)C(=O)CN(CCC(=O)O)C(=O)CN(CCC(=O)O)C(=O)CNCCC(=O)O` [peptoid where R was —CH2CH2COOH], the “modification effect on the topography” value in assay [2] was “no modification effect on the topography of ice crystals”.

Turning to GDL-L-Val, the “MLGS (%) relative to that of DPBS, compared with the unbound components” value in assay [1] is “obviously smaller than those of the DPBS solutions of GDL and amino acids at the same concentration”.

As to `CNCC(=O)N(C)CC(=O)N(C)CC(=O)N(C)CC(=O)N(C)CC(=O)N(C)CC(N)=O` [peptoid where R was —CH3], in assay [2], the “thermal hysteresis (TH)” value was “no TH” and the “modification effect on the topography” value is “rather obvious modification effects on the topography of ice crystals”. Further, the “modification effect on the topography” value in assay [2] (listed as compound of formula (9) where R is —CH3) is on record as “excellent modification effect on the topography of ice crystals”.

On to GDL-L-Ser, for which the “MLGS (%) relative to that of DPBS, compared with the unbound components” value in assay [1] was “obviously smaller than those of the DPBS solutions of GDL and amino acids at the same concentration”.

`C[C@@H](O)[C@H](N)C(=O)N[C@@H](CCCNC(=N)N)C(=O)O` [TR, L-Thr-L-Arg] (H-Thr-Arg-OH): the “MLGS (%) relative to that of DPBS, compared with the unbound components” value in assay [1] was “obviously smaller than that of the DPBS solutions of arginine and threonine at the same concentration”. Moreover, in assay [2], the “thermal hysteresis (TH)” value is “No TH was determined” and the “modification effect on the topography” value was “weak modification effect on the topography of ice crystals”.

With `CCNCC(=O)N(CC)CC(=O)N(CC)CC(=O)N(CC)CC(=O)N(CC)CC(=O)N(CC)CC(N)=O` [peptoid where R was —CH2CH3], in assay [2], the “thermal hysteresis (TH)” value was “no TH” and the “modification effect on the topography” value is recorded as “rather obvious modification effects on the topography of ice crystals”. For the same compound, in assay [2] (listed as compound of formula (9) where R is —CH2CH3), the “modification effect on the topography” value is listed as “excellent modification effect on the topography of ice crystals”.

(Values after patent US20220192179A1, “BIOMIMETIC ICE-INHIBITING MATERIAL AND CRYOPRESERVATION SOLUTION COMPRISING SAME” (priority 2019, published 2022).)
